Holding throughout (type): cell-based
In test [1] the test system is Candida famata regulatory mutants able to overproduce riboflavin. As to the kind of experiment: Sensitivity to copper ions, solid Burkholder medium (Table 12). Also noted: key: +++: strong growth; ++: weak growth; —: absence of growth. As to conditions: L20105-3-2-4.
The test system is the same in test [2]. The test is described as follows: Sensitivity to K2Cr2O7, solid Burkholder medium with 0.3 M sucrose (Table 13). The method, then: (§1) The sensitivity of the regulatory mutants of the yeast C. famata which overproduce riboflavin in iron rich medium probably due to defects in genes regulating repression (repression mutants), to different ions of heavy metals was studied. For this, the analyzed strains were streaked on the YPD plates and then were replica-plated on Burkholder synthetic medium containing leucine (40 μg/ml). The C.famata mutants L20105-40-1-11, L20105-40-1-17, L20105-3-2-1, L20105-3-2-8 and L20105-3-2-12 (all contained leu2 marker) accumulated 80–100 μg riboflavin/ml. The mutants #75, 4-48, 2-5 produced much higher amounts of riboflavin (200–250 μg/ml) but were prototrophs for leucine synthesis. Strain #75 was characterized by retarded growth comparing with other mutants. The strains VKM Y-9 (wild type) and L20105 (leu2) were used as the control strains.

In test [3] the test system is Pichia guilliermondii wild type and regulatory mutants (rib81). As to the kind of experiment: Sensitivity after electroporation to K2Cr2O7, medium with 0.5% glycerol (Table 21). The following applies: #9-20 (leu2); K2Cr2O7 125 μM. Also noted: key: +++: strong growth; ++: weak growth; +: very weak growth; —: absence of growth. From the text: (§2) The possibility for positive selection of P. guilliermondii rib81 transformants unable to overproduce riboflavin in minimal medium was studied. For this, the toxicity of K2Cr2O7 (Cr^+6) was compared for the P. guilliermondii wild-type strain ATCC 9058 and regulatory mutants P. guilliermondii rib81 9-20 and 20-2. The cells were pregrown in liquid YPD to OD 1.5–2.0 (540 nm) and electroporated according to the protocol described (Example 34). Electroporated cells were washed three times with 10×volume of 0.6 M KCl and then the volume was adjusted to 1 ml. Then the cells were plated at 0.2 ml suspension per plate which contained 0.5% glycerol, 0.6 M KCl and K2Cr2O7 (50–1000 μM).
(§3) The visual selection of the non-overproducing riboflavin transformants is rather arbitrary and uncertain. Therefore it was decided to develop the method for positive selection of the transformants using tentative differences in sensitivity to K2Cr2O7 of wild-type P. guilliermondii and the regulatory mutants rib81 9-20 and 20-2. After 6 days of cultivation in the medium with 0.5% glycerol, it was shown that K2Cr2O7 at 150–180 μM inhibited growth of regulatory mutant 9-20 more strongly than that of the wild strain (Table 21).

Test [4] has as its system Candida famata regulatory mutants able to overproduce riboflavin. As to the kind of experiment: Sensitivity to K2Cr2O7, solid Burkholder medium with 0.5% glycerol (Table 14). Also noted: key: +++: strong growth; ++: weak growth; +: very weak growth; —: absence of growth. The method, then: as §1
The test system of test [5] is Pichia guilliermondii wild type and regulatory mutants (rib81). As to the kind of experiment: Sensitivity after electroporation to K2Cr2O7, medium with 0.5% glycerol (Table 21). Also noted: key: +++: strong growth; ++: weak growth; —: absence of growth.
From the text: as §2, §3

With `O=S(=O)([O-])[O-].[Cu+2]` [CuSO4], the growth result in test [1] (Cu^+2 0.3 mM) and in test [1] (Cu^+2 8 mM) was “—” in each case.

Turning to `[K+].[K+].[O]=[Cr](=[O])([O-])[O][Cr](=[O])(=[O])[O-]` [K2Cr2O7], the “concentration inhibiting growth of strain #75” value in test [2] (medium with 0.3 M sucrose) amounted to 100 µM. Further, the “concentration inhibiting growth of strains with higher riboflavin production” value in test [2] (medium with 0.3 M sucrose) worked out at 175 µM. Moreover, the “concentration totally inhibiting growth of mutants with lower levels of riboflavin overproduction” value in test [2] (medium with 0.3 M sucrose) came out at 125 µM. In addition, the “effect of subinhibitory concentrations on flavinogenesis of all tested strains” value in test [2] (riboflavin overproducers and wild-type strains) was “stimulated flavinogenesis”. Further, the growth result in test [3] is “+”; in test [4] (#2-5, K2Cr2O7 65 μM), “+”; in test [4] (#2-5, K2Cr2O7 75 μM) it was “+”; in test [4] (L20105-3-2-4, K2Cr2O7 30 μM), “+”; in test [4] (L20105-3-2-4, K2Cr2O7 40 μM), “+”; in test [4] (L20105-3-2-8, K2Cr2O7 30 μM), “+”. The growth result in test [4] (L20105-3-2-8, K2Cr2O7 40 μM) is “+”; in test [4] (L20105-3-2-12, K2Cr2O7 30 μM), “+”; in test [4] (L20105-3-2-12, K2Cr2O7 40 μM) it was “+”; in test [5] (#9-20 (leu2), K2Cr2O7 75 μM) it was “+++”; in test [5] (#9-20 (leu2), K2Cr2O7 100 μM), “++”; in test [5] (#9-20 (leu2), K2Cr2O7 150 μM) it was “—”. The growth result is recorded as “—” in test [5] (#9-20 (leu2), K2Cr2O7 185 μM); “—” in test [5] (#9-20 (leu2), K2Cr2O7 240 μM); “+++” in test [5] (ATCC9058, K2Cr2O7 75 μM); “+++” in test [5] (ATCC9058, K2Cr2O7 100 μM); “+++” in test [5] (ATCC9058, K2Cr2O7 125 μM); “+++” in test [5] (ATCC9058, K2Cr2O7 150 μM). Also, the growth result is listed as “++” in test [5] (ATCC9058, K2Cr2O7 185 μM) and “—” in test [5] (ATCC9058, K2Cr2O7 240 μM).

The values are drawn from US7009045B2 (priority 2000, dated 2006).
